Data: ChEMBL document CHEMBL1142990, “Self-organizing maps for identification of new inhibitors of P-glycoprotein” (J Med Chem, 2007)

biological target: ATP-dependent translocase ABCB1 (Homo sapiens, UniProt P08183); test: Inhibition of P-glycoprotein expressed in MDR CCRF vcr1000 cells by daunorubicin efflux assay
Sequence (P08183 whole entry): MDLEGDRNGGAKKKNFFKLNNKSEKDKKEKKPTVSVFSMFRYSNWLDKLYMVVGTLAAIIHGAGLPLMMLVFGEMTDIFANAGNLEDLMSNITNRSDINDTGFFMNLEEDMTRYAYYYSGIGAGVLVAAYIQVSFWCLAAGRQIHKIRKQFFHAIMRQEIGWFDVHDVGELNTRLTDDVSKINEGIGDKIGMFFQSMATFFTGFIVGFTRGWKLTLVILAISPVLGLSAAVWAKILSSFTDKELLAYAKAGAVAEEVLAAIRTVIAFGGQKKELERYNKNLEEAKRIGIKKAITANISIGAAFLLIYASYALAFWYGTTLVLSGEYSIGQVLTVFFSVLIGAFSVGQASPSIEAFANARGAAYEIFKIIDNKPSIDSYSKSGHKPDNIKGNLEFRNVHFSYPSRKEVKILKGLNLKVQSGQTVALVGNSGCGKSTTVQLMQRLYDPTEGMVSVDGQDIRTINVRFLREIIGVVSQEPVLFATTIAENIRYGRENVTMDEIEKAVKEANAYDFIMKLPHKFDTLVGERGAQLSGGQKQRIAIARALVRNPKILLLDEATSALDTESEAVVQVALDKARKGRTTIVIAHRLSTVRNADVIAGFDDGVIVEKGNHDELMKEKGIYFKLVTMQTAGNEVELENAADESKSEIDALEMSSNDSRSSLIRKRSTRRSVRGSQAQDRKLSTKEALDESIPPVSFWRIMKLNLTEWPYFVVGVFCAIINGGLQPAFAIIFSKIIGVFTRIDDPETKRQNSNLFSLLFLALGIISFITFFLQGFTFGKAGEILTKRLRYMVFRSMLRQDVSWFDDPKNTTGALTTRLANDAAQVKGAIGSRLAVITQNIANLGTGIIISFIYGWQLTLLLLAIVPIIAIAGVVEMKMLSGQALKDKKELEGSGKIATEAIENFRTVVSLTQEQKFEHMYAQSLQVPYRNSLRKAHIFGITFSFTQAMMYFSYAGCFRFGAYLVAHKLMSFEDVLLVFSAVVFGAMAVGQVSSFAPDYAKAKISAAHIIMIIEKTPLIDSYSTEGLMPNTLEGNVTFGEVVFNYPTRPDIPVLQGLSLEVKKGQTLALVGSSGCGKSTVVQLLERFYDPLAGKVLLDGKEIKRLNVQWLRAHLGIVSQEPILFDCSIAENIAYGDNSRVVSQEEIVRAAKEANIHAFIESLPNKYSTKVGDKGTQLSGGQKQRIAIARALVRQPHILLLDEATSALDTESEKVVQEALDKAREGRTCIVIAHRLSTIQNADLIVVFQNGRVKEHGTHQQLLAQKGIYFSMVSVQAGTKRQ

SMILES	EC50 [µM]
CCCNCC(O)c1oc2ccccc2c1CC (configuration not stated)	11.5
O=C(CCc1ccccc1)c1cc(OCc2ccccc2)ccc1OCC(O)CN1CCN(Cc2ccccc2)CC1 (configuration not stated)	0.116
O=C(CCc1ccccc1)c1ccccc1OCC(O)CNCC(c1ccccc1)c1ccccc1 (configuration not stated)	0.797
O=C(CCc1ccccc1)c1ccc(OCC(O)CN2CCOCC2)cc1 (configuration not stated)	6.88
O=C(CCc1ccccc1)c1ccccc1OCC(O)CNC1CCCCC1 (configuration not stated)	0.341
O=C(CCc1ccccc1)c1cccc(OCC(O)CN2CCN(c3ccc(F)cc3)CC2)c1 (configuration not stated)	1.12
O=C(CCc1ccccc1)c1cccc(OCC(O)CN2CCCCC2)c1 (configuration not stated)	0.424
COC(CCc1ccccc1)c1ccccc1OCC(O)CN(C(C)C)C(C)C (configuration not stated)	0.658
COC(CCc1ccccc1)c1ccccc1OCC(O)CN1CCN(c2ccc(F)cc2)CC1 (configuration not stated)	0.226
COC(CCc1ccccc1)c1ccccc1OCC(O)CN1CCCCC1 (configuration not stated)	0.173
OC(COc1ccccc1C(O)CCc1ccccc1)CN1CCN(c2ccc(F)cc2)CC1 (configuration not stated)	0.671
O=C(CCc1ccccc1)c1ccc(OCC(O)CN2CCCCC2)cc1 (configuration not stated)	0.972
CC(C)N(CC(O)COc1ccc(C(=O)CCc2ccccc2)cc1)C(C)C (configuration not stated)	0.915
CCC(=O)c1ccccc1OCC(O)CN1CCCCC1 (configuration not stated)	14.3
O=C(CCc1ccccc1)c1ccccc1OCC(O)CN1CCN(c2ccccc2)CC1 (configuration not stated)	0.61
COC(CCc1ccccc1)c1ccccc1OCC(O)CN1CCOCC1 (configuration not stated)	1.81
CCCNCC(O)COc1ccc(OCc2ccccc2)cc1C(=O)CCc1ccccc1 (configuration not stated)	0.11
CC(=O)c1ccccc1OCC(O)CN1CCC(O)(c2ccccc2)CC1 (configuration not stated)	3.2
O=C(CCc1ccccc1)c1cc(O)ccc1OCC(O)CN1CCCCC1 (configuration not stated)	1.73
O=C(CCc1cccc2ccccc12)c1ccccc1OCC(O)CNCCC(c1ccccc1)c1ccccc1 (configuration not stated)	0.723
O=C(CCc1ccccc1)c1ccc(OCC(O)CN2CCN(c3ccc(F)cc3)CC2)cc1 (configuration not stated)	2.54

SMILES	EC50 [µM]
O=C(c1ccccc1)c1ccccc1OCC(O)CN1CCC(O)(c2ccccc2)CC1 (configuration not stated)	0.307
O=C(c1ccccc1)c1ccccc1OCC(O)CN1CCN(c2ccc(F)cc2)CC1 (configuration not stated)	0.147
O=C(CCc1ccccc1)c1ccccc1OCC(O)CNc1ccccc1 (configuration not stated)	6.47
CC(C)N(CC(O)COc1ccc(O)cc1C(=O)CCc1ccccc1)C(C)C (configuration not stated)	1.04
O=C(CCc1ccccc1)c1ccccc1OCC(O)CNC(c1ccccc1)C1CCCCC1 (configuration not stated)	0.145
O=C1c2c(cccc2OCC(O)CN2CCCCC2)CC1Cc1ccccc1 (configuration not stated)	0.212
CC(=O)c1ccc(OCC(O)CN2CCN(c3ccccc3C)CC2)cc1 (configuration not stated)	1.55
COc1ccc(C(=O)CCc2ccccc2)c(OCC(O)CN2CCN(c3ccccc3C)CC2)c1 (configuration not stated)	0.296
COc1ccc(OCC(O)CN2CCN(c3ccccc3C)CC2)c(C(C)=O)c1 (configuration not stated)	0.859
O=C(CCc1ccccc1)c1cccc(OCC(O)CN2CCOCC2)c1 (configuration not stated)	3.48
Cc1ccccc1N1CCN(CC(O)COc2ccccc2C(=O)CCc2ccc(Cl)cc2)CC1 (configuration not stated)	0.019
O=C(CCc1ccccc1)c1ccccc1OCCCCCN1CCCCC1	0.242
CC1c2ccccc2OC1C(=O)N1CCCCC1 (configuration not stated)	104
O=C1c2cccc(OCC(O)CN3CCCCC3)c2CC1Cc1ccccc1 (configuration not stated)	0.142
O=C(C1Oc2ccccc2C1CCc1ccccc1)N1CCCCC1 (configuration not stated)	6.66
CC(=O)c1ccc(OCC(O)CNCCC(c2ccccc2)c2ccccc2)cc1 (configuration not stated)	0.178
O=C(CCc1ccccc1)c1ccccc1OCC(O)CN1CCC(Cc2ccccc2)CC1 (configuration not stated)	0.259
O=C(CCc1ccccc1)c1ccccc1OCCCCCCCN1CCCCC1	0.179
Cc1ccc(CCC(=O)c2ccccc2OCC(O)CN2CCN(c3ccccc3C)CC2)cc1 (configuration not stated)	0.018
O=C(CCc1ccccc1)c1ccccc1OCCCCCCCCN1CCCCC1	0.137
Cc1ccccc1N1CCN(CC(O)COc2cccc(C(=O)CCc3ccccc3)c2)CC1 (configuration not stated)	0.074

SMILES	EC50 [µM]
O=C1CC(CN2CCCCC2)Oc2ccccc21 (configuration not stated)	176
CCCNC[C@H](O)c1oc2ccccc2c1CCc1ccccc1	1.06
COC(CCc1ccccc1)c1ccccc1OCC(O)CNCCC(c1ccccc1)c1ccccc1 (configuration not stated)	0.752
CC(=O)c1ccccc1OCC(O)CN1CCC(Cc2ccccc2)CC1 (configuration not stated)	0.357
CC(C)(C)C(NCC(O)COc1ccccc1C(=O)CCc1ccccc1)c1ccccc1 (configuration not stated)	0.292
O=C(CCc1ccccc1)c1cccc(OCC(O)CNCCC(c2ccccc2)c2ccccc2)c1 (configuration not stated)	0.19
Cc1cccc(N2CCN(CC(O)COc3cccc(C(=O)CCc4ccccc4)c3)CC2)c1C (configuration not stated)	0.137
CC1Cc2cccc(OCC(O)CN3CCCCC3)c2C1=O (configuration not stated)	9.68
CCOC(=O)COc1ccccc1C(=O)CCc1ccccc1	23.2
O=C(O)COc1ccccc1C(=O)CCc1ccccc1	1590
O=C(CCc1ccccc1)c1ccccc1OCCN1CCCCC1	1.45
O=C(CCc1ccccc1)c1ccccc1OCC(O)CN(C(c1ccccc1)c1ccccc1)C(c1ccccc1)c1ccccc1 (configuration not stated)	10.4
c1ccc(CCC2c3ccccc3OC2CN2CCCCC2)cc1 (configuration not stated)	1.62
O=C(CCc1ccccc1)c1ccccc1OCC(O)CN1CCCCC1 (configuration not stated)	0.599
O=C(CCc1cccc2ccccc12)c1ccccc1OCC(O)CN1CCCCC1 (configuration not stated)	0.172
O=C(CCc1ccccc1)c1ccccc1OCC(O)CNCCC(c1ccccc1)c1ccccc1 (configuration not stated)	0.717
O=C(CCc1ccccc1)c1cc(OCc2ccccc2)ccc1OCC(O)CN1CCCCC1 (configuration not stated)	0.172
CC(C)N(CC(O)COc1ccccc1C(O)CCc1ccccc1)C(C)C (configuration not stated)	1.74
COc1ccccc1N1CCN(CC(O)c2oc3ccccc3c2CCc2ccccc2)CC1 (configuration not stated)	0.177
OC(COc1ccccc1C(O)CCc1ccccc1)CN1CCCCC1 (configuration not stated)	0.901
OC(COc1ccccc1C(O)CCc1ccccc1)CN1CCOCC1 (configuration not stated)	9.54

SMILES	EC50 [µM]
Cc1ccc(N2CCN(CC(O)COc3cccc4c3C(=O)C(Cc3ccccc3)C4)CC2)c(C)c1 (configuration not stated)	0.167
COc1ccc(C(=O)CCc2ccc(N(C)C)cc2)c(OCC(O)CN2CCN(c3ccccc3C)CC2)c1 (configuration not stated)	0.04
CC(=O)c1cccc(OCC(O)CN2CCN(c3ccccc3C)CC2)c1 (configuration not stated)	0.537
O=C(CCc1ccccc1)c1ccc(OCC(O)CNCCC(c2ccccc2)c2ccccc2)cc1 (configuration not stated)	0.505
CC(=O)c1cccc(OCC(=O)CN2CCN(c3cccc(C)c3C)CC2)c1	0.379
Cc1cccc(N2CCN(CC(O)COc3ccc(C(=O)CCc4ccccc4)cc3)CC2)c1C (configuration not stated)	0.227
CC1c2ccccc2OC1CN1CCCCC1 (configuration not stated)	48.9
O=C1CCc2c(OCC(O)CN3CCCCC3)cccc21 (configuration not stated)	11.2
CC(=O)c1cc(C)ccc1OCC(O)CN1CCCCC1 (configuration not stated)	5.47
c1ccc(CCc2c(CCN3CCCCC3)oc3ccccc23)cc1	0.98
O=C(CCc1ccccc1)c1ccccc1OCCCCN1CCCCC1	0.533
O=C(CCc1ccccc1)c1ccccc1OCCCN1CCCCC1	0.651
CCCNC[C@@H](O)c1oc2ccccc2c1CCc1ccccc1	1.1
O=C(CCc1ccccc1)c1ccccc1OCCCCCCN1CCCCC1	0.203
Cc1ccccc1N1CCN(CC(O)COc2cc(Cl)c(Cl)cc2C(=O)CCc2ccccc2)CC1 (configuration not stated)	0.017
CC(C)OC(CCc1ccccc1)c1ccccc1OCC(O)CN1CCCCC1 (configuration not stated)	0.46
CC(=O)c1ccccc1OCC(O)CN1CCCCC1 (configuration not stated)	32
CCN(CC)CC(O)COc1ccccc1C(=O)CCc1ccccc1 (configuration not stated)	0.907
CC(C)N(CC(O)COc1ccccc1C(=O)CCc1ccccc1)C(C)C (configuration not stated)	0.377
